Experimental data taken from US12577213B2 (NINGBO COMBIREG PHARMACEUTICAL TECHNOLOGY CO., LTD., priority 2020, dated 2026).

Key:
[1] = Metabolic stability in vivo (plasma half-life after IV); conditions: mouse, plasma, iv; intravenously at 1 mg/kg, male BALB/c nude mice; read-out: T½ of (IV in nude mice) (converted)
Procedure: The intravenous injection group of the embodiment compound was prepared with the mixed solvent of DMA:PEG400:30% SBECD=5:25:70 to form a 0.2 mg/mL of solution, and administered intravenously at 1 mg/kg of weight; and the oral preparation group was prepared with 0.5% MC to form a 1 mg/mL of solution, and administered by oral gavage at 10 mg/kg weight.
• Male BALB/c nude mice, 4-5 weeks old, purchased from Shanghai SLAC. 3. Experiment Method: 3.1 Instruments: • Liquid chromatography system: Shimadzu liquid chromatography system Shimadzu LC-30AD • MS/MS system: Applied Biosystems API5500 • Data collection: Analyst Software 1.5.2 3.2 Chromatographic Conditions Chromatographic Column • Analytical column: Kinetex 2.6u C18 100 A column (3.0 mm×30 mm) • Mobile phase: A: 10 mM NH4OAc (0.1% FA); B: Acetonitrile with 0.1% […] • Flow rate: 1.0 mL/min
Ion source was an electron spray ionization (ESI source) with negative ion detection; spray voltage source was 5500 V; ion source gas 1 (N2) was 50 psi; ion source gas 2 (N2) was 50 psi; air curtain gas (N2) was 30 psi. Scanning mode was multiple reaction monitoring (MRM); scanning time was 80 ms; collision gas pressure was 10 psi;
Grouping experiment, with three animals in each group, starting from now on, administration was started according to the weight of the animals. Blood was collected according to 5 min, 15 min, 30 min, 1 h, 2 h, 4 h, 8 h and 24 h after administration.
To 25.0 μL of plasma, 25.0 μL of internal standard solution (Tolbutamide (250 ng/mL) in acetonitrile), 25.0 μL of acetonitrile and 100 μL of acetonitrile were added, and the mixture was vortexed for 1 min, and centrifuged for 5 min (14000 rpm). 120 μL of the resulting supernatant was added with 80.0 μL of water (containing 1% formic acid) and mixed well, then analyzed by LC/MS/MS.

HS 578T (breast cancer) = test: NCI method SRB growth inhibition, HS 578T; type: cell-based; conditions: Homo sapiens, HS578T, treated 48 hours, SRB stain
Procedure, shortened: (§1)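 Readings normalised to time-zero (Tz) and 48 h vehicle (C) optical densities gave percent growth for each compound-treated well (Ti) after 48 h exposure, with SRB staining read at 515 nm. GI50 marks 50% growth, TGI zero net growth, and LC50 a 50% loss of cells.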

786-0 (renal cancer) = test: NCI method SRB growth inhibition, 786-0; type: cell-based; conditions: Homo sapiens; 786-0, treated 48 hours, SRB stain
Procedure, shortened: as §1

HCT116 (colon cancer) = test: NCI method SRB growth inhibition, HCT116; type: cell-based; conditions: Homo sapiens, HCT-116; HCT116, treated 48 hours, SRB stain
Procedure, shortened: as §1

[2] = test system: xenograft of human colon cancer HCT-116 in nude mice; test: Xenograft tumor growth inhibition, HCT-116; type: in vivo, BALB/c nude mice; conditions: for Relative tumor proliferation rate (%) / Tumor weight inhibition rate (%): HCT116 xenograft; for efficacy evaluation on growth of HCT-116 xenograft (in words): criteria: T/C (%)≤40 and P<0.05 is effective
Procedure: The embodiment compound was prepared as a 40× stock solution of DMSO and diluted to the administered concentration with saline containing 2.5% Tween 80 (Tween 80) used before;
Male BALB/c nude mice, 4-5 weeks old, were purchased from Beijing Vital River Laboratory Animal Technology Co., Ltd, with a license No. SCXK(Beijing)2012-0001, and the mice were bred in the SPF-class laboratory animal center of Tsinghua University. The tumor lines used in the experiment were: xenograft of human lung cancer NCI-H522 in nude mice, xenograft of human colon cancer HCT-116 in nude mice.
Tumor-bearing animals with good tumor growth and overall condition were selected and sacrificed by cervical dislocation. The tumors were removed under aseptic condition, cut into tumors with 2-3 mm diameter by a scalpel, and inoculated subcutaneously behind the armpit of nude mice by trocar. The tumors grew naturally and were randomly grouped after the tumor volume grew to 105 mm^3, and the administration date of grouping was set as D0 (Day 0).
Grouping experiment, with 7-9 animals in each group, starting from now on, administration was started according to the weight of the animals. During the administration process, the long, short diameter of the tumors and weight of animals were measured every 2-3 days, and the tumor size was calculated by the formula: (½)×long diameter×(short diameter)^2, and the experiment was ended on the 27th day (D27) after grouping. At the end of the experiment, the animals were sacrificed by cervical dislocation, the tumors were peeled off and weighed, and the inhibitory rates of the drugs on tumor growth were calculated. Tumor volume (TV) and relative tumor volume (RTV) were calculated. T test was used to compare the statistical significance of the differences in tumor weight, tumor volume and RTV of the animals in each group.
Calculation formulas are as follows: average tumor weight in the vehicle control group−average tumor weight in the treatment group Tumor inhibition rate (%)=(average tumor weight in the vehicle control group−average tumor weight in the treatment group)[…](average tumor weight in the vehicle control)×100. Tumor volume (TV)=(length×width^2)/2. Relative tumor volume (RTV)=Vt/Vo (wherein, Vo is the TV measured at the time of grouping and administration, and Vt is the TV at each subsequent measurement).
[formula] • Efficacy evaluation criteria: T/C (%)>40 is invalid; • T/C (%)≤40, and P<0.05 is effective after statistical processing. 4.

[3] = 20 mg/kg, intravenous injection every other day × 3
[4] = 16 mg/kg, intravenous injection every other day × 9
[5] = 20 mg/kg, intravenous injection every other day × 9

SMILES	half-life [1]	GI50 (HS 578T (breast cancer))	GI50 (786-0 (renal cancer))	GI50 (HCT116 (colon cancer))	Relative tumor proliferation rate (%) [2, 3]	Tumor weight inhibition rate (%) [2, 3]	efficacy evaluation on growth of HCT-116 xenograft (in words) [2]	Relative tumor proliferation rate (%) [2, 4]	Tumor weight inhibition rate (%) [2, 4]	Relative tumor proliferation rate (%) [2, 5]	Tumor weight inhibition rate (%) [2, 5]
[2H]C([2H])([2H])Oc1cc(C(=O)Nc2cc3c(cc2Oc2cc(C)cc(C)c2)C(=O)N[C@@H](CC(=O)N(C([2H])([2H])C([2H])([2H])[2H])C([2H])([2H])C([2H])([2H])[2H])C(=O)N3)c(Br)c(OC([2H])([2H])[2H])c1OC([2H])([2H])[2H] [Compound 5, (S)-2-bromo-N-[3-[2-[bis(pentadeuteroethyl)amino]-2-oxoethyl]-7-(3,5-dimethylphenoxy)-2,5-dioxo-2,3,4,5-tetrahydro-1H-benzo[e][1,4]diazepin-8-yl]-3,4,5-tris(trideuteromethoxy)benzamide]	91.2 min	< 5 nM	26.1 nM	< 5 nM	34%	69.6%	inhibit the growth				
[2H]C([2H])([2H])Oc1cc(C(=O)Nc2cc3c(cc2Oc2cc(C)cc(C)c2)C(=O)N(C)[C@@H](CC(=O)N(C)C)C(=O)N3)c(Br)c(OC([2H])([2H])[2H])c1OC([2H])([2H])[2H] [Compound 16, (S)-2-bromo-N-[3-[2-(dimethylamino)-2-oxoethyl]-7-(3,5-dimethylphenoxy)-4-methyl-2,5-dioxo-2,3,4,5-tetrahydro-1H-benzo[e][1,4]diazepin-8-yl]-3,4,5-tris(trideuteromethoxy)benzamide]	35.1 min	< 5 nM	11.2 nM	< 5 nM			inhibit the growth	38%	63.4%		
[2H]C([2H])([2H])Oc1cc(C(=O)Nc2cc3c(cc2Oc2cc(C)cc(C)c2)C(=O)N[C@@H](CC(=O)N(C)C)C(=O)N3)c(Br)c(OC([2H])([2H])[2H])c1OC([2H])([2H])[2H] [Compound 20, (S)-2-bromo-N-[3-[2-(dimethylamino)-2-oxoethyl]-7-(3,5-dimethylphenoxy)-2,5-dioxo-2,3,4,5-tetrahydro-1H-benzo[e][1,4]diazepin-8-yl]-3,4,5-tris(trideuteromethoxy)benzamide]	48 min	< 5 nM	26.5 nM	< 5 nM			inhibit the growth			30%	75.4%
